Some test systems named below: A549 NSCLC; ACHN renal; CCRF-CEM leukemia; HL-60(TB) leukemia; HOP-62 NSCLC; HOP-92 NSCLC; IGROV1 ovarian; KM12 colon; MALME-3M melanoma; MDA-MB-231 breast; MDA-MB-435; OVCAR-3 ovarian; OVCAR-4 ovarian; SF-539 CNS; SK-MEL-28 melanoma; SNB-19 CNS; SW-620 colon; T-47D breast; TK-10 renal; UACC-257 melanoma.
Assay in all cases: NCI tumour cell line growth inhibition, 48 h

Structures are written as SMILES.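 96-well plates; 48 h exposure; 5 concentrations. Endpoints by linear interpolation between flanking doses. Not reached: highest tested concentration assigned. TGI denotes the concentration required for complete inhibition of growth.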

With `CCOC(=O)c1ccc(NC(=O)O/N=C(/Cl)C(C)C)cc1`, the TGI with A549 NSCLC was 47.7 µM; in the test on ACHN renal it was 27 µM; in the test with CCRF-CEM leukemia, 2.55 µM; in the test on HL-60(TB) leukemia, 3.26 µM; in the test on HOP-62 NSCLC, 32.2 µM; in the test on HOP-92 NSCLC it was 3.7 µM. The TGI in the test with IGROV1 ovarian amounted to 43 µM; with KM12 colon, 35.9 µM; in the test with MALME-3M melanoma, 8.49 µM; with MDA-MB-231 breast, 39.7 µM; in the test on MDA-MB-435 it was 32.5 µM; with OVCAR-3 ovarian, 11.5 µM. Besides, the TGI in the test with OVCAR-4 ovarian is 28.4 µM; in the test on SF-539 CNS it was 34.6 µM; in the test on SK-MEL-28 melanoma it was 31 µM; with SNB-19 CNS, > 59.1 µM; in the test on SW-620 colon it was 4.32 µM; in the test on T-47D breast, 6.62 µM. Besides, the figures for the TGI in the test on TK-10 renal and in the test with UACC-257 melanoma were 33.5 µM and 32 µM, respectively.
In the case of `CC(C)(Cl)C(Br)CCC(CBr)=C(Cl)CCl` (mixture of isomers), the TGI with A549 NSCLC is > 10 µM; in the test with ACHN renal it was > 8.98 µM; with CCRF-CEM leukemia, 0.568 µM; in the test with HL-60(TB) leukemia it was 2.95 µM; in the test with HOP-62 NSCLC, > 6.85 µM; in the test on HOP-92 NSCLC, 3.5 µM. The TGI in the test on IGROV1 ovarian was 2.2 µM; in the test with KM12 colon it was 4.1 µM; in the test on MALME-3M melanoma it was 4.13 µM; in the test on MDA-MB-231 breast, 3.5 µM; with MDA-MB-435 it was 3.46 µM; in the test with OVCAR-3 ovarian, > 5.48 µM. Further, the TGI in the test with OVCAR-4 ovarian was > 5.87 µM; in the test on SF-539 CNS, 4.07 µM; with SK-MEL-28 melanoma, 4.41 µM; in the test with SNB-19 CNS it was 9.73 µM; in the test with SW-620 colon, 5.6 µM; in the test with T-47D breast, 5.33 µM. For the same compound, the TGI was > 5.76 µM with TK-10 renal and 4.89 µM with UACC-257 melanoma.

The record behind these values is PubChem BioAssay (NCI).
